In paper PMC8348901, “Novel N-Substituted 3-Aryl-4-(diethoxyphosphoryl)azetidin-2-ones as Antibiotic Enhancers and Antiviral Agents in Search for a Successful Treatment of Complex Infections” (International Journal of Molecular Sciences, 2021):
Read-outs that look alike come from different tables or passages of the source.

Assays:
[1] = tested on: influenza A virus H1N1 subtype; test: Antiviral assay, influenza A virus H1N1 subtype in MDCK cells; format: cell-based, influenza A virus H1N1 (A/PR/8)
in vitro = details: dog

NC(=O)c1ncn([C@@H]2O[C@H](CO)[C@@H](O)[C@H]2O)n1 [ribavirin, reference compound]
EC50 ([1]; H1N1, MDCK cells, visual CPE score, read-out: EC50 by visual CPE score, influenza A virus H1N1): 8.9 µM
EC50 ([1]; H1N1, MDCK, read-out: EC50 by TMS score, influenza A virus H1N1): 6.6 µM
CC50 (in vitro): ≥ 100 µM
